# Source: patent US5643601A, “Phospholipid-and fluorocarbon-containing cosmetic” (Lancaster Group AG, priority 1992, dated 1997)
# Where two headings read alike, the source gives them in different places.
# Assays:
# [1] = O2 solubility of fluorocarbons (Table 1); format: physicochemical
# Description: (§2) Some selected fluorocarbons and their O2 solubility, their vapour pressure and their critical solubility temperature are shown in Table 1.
# [2] = Vapour pressure of fluorocarbons (Table 1); format: physicochemical
# Description: as §2
# [3] = Critical solubility temperature (CST) of fluorocarbons in n-hexane
# Description: (§1) The fluorocarbons can be selected for O2 solubility, partial vapour pressure and lipid solubility according to the specific intended application. The critical solubility temperature of the fluorocarbons (CST) in n-hexane correlates with their solubility in lipids, e.g. cell membranes, and is thus a measure of the rate of release through the skin. […] It is thus possible by mixing various fluorocarbons to set defined CST values which are often not realisable by means of individual compounds.
# Starting from these values, the desired characteristics for the penetration of the skin with the aid of a cosmetic composition can be selected for mixtures of fluorocarbons.
# [4] = tested on: skin; experiment: Release of fluorocarbons through the skin
# Description: as §1
# [5] = tested on: skin; conditions: in words; cited from earlier work
Vapour Pressure P37° C. [2] [mm Hg],CST (critical solubility temperature) [3] [°C],rate of release through the skin / half-life of release [4],SMILES,O2 solubility [1],CST (critical solubility temperature) ([3]; in n-hexane) [°C],Vapour Pressure P37° C. ([2]; 37° C.) [mm Hg],"rate of release through the skin / half-life of release ([4]; in words, correlated with CST)",skin irritation / side effects [5]
414,,,FC(F)(F)C(F)(F)C(F)(F)C(F)(F)C(F)(F)C(F)(F)F [F-hexane],58 ml of O2 /100 ml of Fc,,,,
,,,FC(F)(F)C(F)(F)C(F)(F)C(F)(F)C=CC(F)(F)C(F)(F)C(F)(F)C(F)(F)F [Bis-F(butyl)ethene],50 ml of O2 /100 ml of Fc,22.5,12.6,,
,,,FC(F)(F)C1(F)C(F)(F)C(F)(F)C(F)(F)C(F)(F)C1(F)F [F-methylcyclohexane],57 ml of O2 /100 ml of Fc,8.2,180,,
,,,FC(F)(F)C(F)(F)C(F)(F)C(F)(F)N(C(F)(F)C(F)(F)C(F)(F)C(F)(F)F)C(F)(F)C(F)(F)C(F)(F)C(F)(F)F [F-tributylamine],40 ml of O2 /100 ml of Fc,59,1,high half-life of release,
,22,released relatively rapidly,FC1(F)C(F)(F)C(F)(F)C2(F)C(F)(F)C(F)(F)C(F)(F)C(F)(F)C2(F)C1(F)F (stereo not drawn) [Perfluorodecalin],40 ml of O2 /100 ml of Fc,,12.5,,
,-24.5,released relatively rapidly,FC(F)(F)C(F)(F)C(F)(F)C(F)(F)C(F)(F)C(F)(F)C(F)(F)C(F)(F)Br [Perfluorooctyl bromide],50 ml of O2 /100 ml of Fc,,14,,
,,,FC1(F)OC(F)(F)C(F)(F)N(C(F)(F)C2(F)C(F)(F)C(F)(F)C(F)(F)C(F)(F)C2(F)F)C1(F)F [F-cyclohexylmethyl-morpholine],42 ml of O2 /100 ml of Fc,38.5,4,,
,,,FC(F)(F)C(F)(F)C(F)(F)C(F)(F)C(F)(F)C(F)(F)OC(F)(F)C(F)(F)C(F)(F)C(F)(F)C(F)(F)C(F)(F)F [F-dihexyl ether],45 ml of O2 /100 ml of Fc,59,2,,
,,,FC(F)(F)C(F)(F)C(F)(F)C(F)(F)C1(F)OC(F)(F)C(F)(F)C1(F)F (stereo not drawn) [Perfluorobutyl-tetrahydrofuran],52 ml of O2 /100 ml of Fc,29,51,,
,,,OO [hydrogen peroxide],,,,,considerable side effects such as the skin irritations
,43,,FC(F)(F)C(F)(F)C(F)(F)N(C(F)(F)C(F)(F)C(F)(F)F)C(F)(F)C(F)(F)C(F)(F)F [F-tripropylamine],45 ml of O2 /100 ml of Fc,,18.5,,
